Measurements published in patent publication US20240124412A1, “IKAROS ZINC FINGER FAMILY DEGRADERS AND USES THEREOF” (Gilead Sciences, Inc., priority 2021, published 2024).

What was measured:
[1] = molecular target: T1, IKZF2 (Homo sapiens, UniProt Q96SW2+Q9UKS7); experiment: HiBiT protein tagging assay, in vitro IKZF2 degradation (HEK293); assay type: cell-based; details: HEK293, 18-24 hr incubation, normalized to DMSO control; for Dmax: HEK293, HiBiT assay, read-out: IKZF2 Dmax (maximum degradation at the highest concentration tested); for DC50: HiBiT assay, read-out: IKZF2 EC50
T1 construct: expressed in transfected cells
T1 sequence (Q9UKS7 1-500 isoform Q9UKS7-2): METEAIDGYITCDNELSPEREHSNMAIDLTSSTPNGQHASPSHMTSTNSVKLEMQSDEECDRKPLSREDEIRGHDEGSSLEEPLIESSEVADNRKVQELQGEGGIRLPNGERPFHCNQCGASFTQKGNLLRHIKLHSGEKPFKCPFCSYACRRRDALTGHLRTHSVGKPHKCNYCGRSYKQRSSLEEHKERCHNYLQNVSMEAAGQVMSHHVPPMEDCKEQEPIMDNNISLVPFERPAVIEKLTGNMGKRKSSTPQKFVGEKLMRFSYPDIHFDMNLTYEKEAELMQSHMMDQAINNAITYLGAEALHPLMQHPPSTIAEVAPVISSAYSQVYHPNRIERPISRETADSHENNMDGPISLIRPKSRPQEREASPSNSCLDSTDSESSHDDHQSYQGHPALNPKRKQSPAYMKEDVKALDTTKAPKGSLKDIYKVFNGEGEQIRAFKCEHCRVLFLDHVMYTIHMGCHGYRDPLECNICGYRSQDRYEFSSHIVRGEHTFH
T1 sequence (Q96SW2 whole entry): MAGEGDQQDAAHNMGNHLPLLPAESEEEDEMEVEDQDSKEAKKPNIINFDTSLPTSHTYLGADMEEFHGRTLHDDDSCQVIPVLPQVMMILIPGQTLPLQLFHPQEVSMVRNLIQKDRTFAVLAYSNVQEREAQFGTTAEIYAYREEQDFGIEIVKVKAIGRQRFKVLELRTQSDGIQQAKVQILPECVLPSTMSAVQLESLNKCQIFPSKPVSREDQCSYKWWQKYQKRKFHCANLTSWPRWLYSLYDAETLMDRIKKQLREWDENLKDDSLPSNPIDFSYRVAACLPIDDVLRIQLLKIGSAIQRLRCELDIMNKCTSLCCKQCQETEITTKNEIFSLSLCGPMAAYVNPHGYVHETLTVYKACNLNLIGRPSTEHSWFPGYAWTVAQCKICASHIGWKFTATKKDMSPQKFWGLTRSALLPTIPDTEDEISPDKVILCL
T1 sequence (Q16531 whole entry partner): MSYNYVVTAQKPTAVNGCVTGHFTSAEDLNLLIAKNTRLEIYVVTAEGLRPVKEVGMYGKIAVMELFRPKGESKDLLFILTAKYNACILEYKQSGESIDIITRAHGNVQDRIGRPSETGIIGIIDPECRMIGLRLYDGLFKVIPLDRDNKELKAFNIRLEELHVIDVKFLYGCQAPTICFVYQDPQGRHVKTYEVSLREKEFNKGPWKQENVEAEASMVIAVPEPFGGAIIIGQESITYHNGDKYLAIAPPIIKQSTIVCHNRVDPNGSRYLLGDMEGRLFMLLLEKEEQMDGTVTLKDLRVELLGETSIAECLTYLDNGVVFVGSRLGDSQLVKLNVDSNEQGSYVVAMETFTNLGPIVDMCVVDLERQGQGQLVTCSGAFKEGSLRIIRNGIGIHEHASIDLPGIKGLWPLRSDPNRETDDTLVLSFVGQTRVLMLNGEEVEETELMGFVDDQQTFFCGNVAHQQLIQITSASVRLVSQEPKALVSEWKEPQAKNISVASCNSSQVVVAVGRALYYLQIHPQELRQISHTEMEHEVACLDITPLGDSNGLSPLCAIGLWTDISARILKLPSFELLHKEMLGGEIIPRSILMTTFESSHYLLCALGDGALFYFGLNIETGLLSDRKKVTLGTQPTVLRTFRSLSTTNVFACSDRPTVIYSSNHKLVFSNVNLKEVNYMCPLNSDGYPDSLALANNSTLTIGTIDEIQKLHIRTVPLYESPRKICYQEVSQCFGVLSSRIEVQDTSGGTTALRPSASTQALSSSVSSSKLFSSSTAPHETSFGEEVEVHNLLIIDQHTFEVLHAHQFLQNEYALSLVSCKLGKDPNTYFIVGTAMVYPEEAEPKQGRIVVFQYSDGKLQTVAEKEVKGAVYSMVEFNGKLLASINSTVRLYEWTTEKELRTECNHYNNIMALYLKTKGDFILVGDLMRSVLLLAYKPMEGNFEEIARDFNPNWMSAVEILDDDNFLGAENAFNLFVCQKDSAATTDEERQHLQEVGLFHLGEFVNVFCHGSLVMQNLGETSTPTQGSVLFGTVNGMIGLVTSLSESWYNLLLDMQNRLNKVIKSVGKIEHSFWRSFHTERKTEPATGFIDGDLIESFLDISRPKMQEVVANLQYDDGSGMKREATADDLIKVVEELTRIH
Description: (§1) In vitro degradation of IKZF1 and IKZF2 was measured using HiBiT protein tagging and detection technology (Promega).
(§2) HiBiT technology (Promega) was used to develop the quantitative assays to measure the cellular IKZFs level by tagging an 11 amino acid HiBit peptides VSGWRLFKKIS (SEQ ID NO:1) to the protein of interest. Reporter plasmids were generated by fusing a linker sequence (GSSGGSSG; SEQ ID NO:2) followed by the HiBiT tag at the C terminus of IKZF1 and IKZF2. The fusion fragments were subsequently cloned into pcDNA5 pcDNA™5/FRT/TO plasmids (Thermo Fisher, cat #V652020) downstream of the Tetracycline operator. The resulting plasmids were co-transfected with pOG44 Flp-Recombinase Expression Vector (Thermo Fisher, cat #V600520) into Flp-In™ T-REx HEK293 line (Thermo Fisher, cat #R78077) and a stable cell pool was selected by adding 100 μg/ml of Hygromycin (Thermo Fisher, cat #10687010). The reporter cell enabled Tet-On inducible reporter expression from a single copy of the integrated gene.
(§3) On Day 1, Cells were grown to ˜80% confluency in TC medium (DMEM Glutamax (Gibco10569), 10% Tet free FBS (Takara 631106), and PenStrep Glutamin (Gibco 10378)) in tissue culture flasks. Doxycycline was then added to a final concentration of 1 μg/ml to induce reporter expression at 37° C. overnight.
(§4) On Day 2, 125 nL of serially-diluted solution of testing compounds were dispensed into 384-well white solid assay plates via ECHO acoustic liquid handler. Cells were lifted by 0.25% Trypsin (Gibco 25200) then pelleted by centrifugation (Beckman Avanti J-E) at 500×g for 5 min. Cell pellets were resuspended in TC medium at the concentration of 3e5/mL and 25 μL of cell suspension were added into each well of compound-spotted plates. The plates were returned to a 37° C. incubator overnight (18-24 hr).
(§5) On Day 3, assay plates were removed from the TC incubator and 25 μL of Nano-Glo lytic detection system (Promega, cat #N3030) was added to each well. Plates were incubated at r.t. for 3 min with shaking, and luminescence was read using an Envision reader (Perkin Elmer).
(§6) All raw data was normalized to DMSO control (final concentration: 0.5%) wells as POC and plotted out for EC50 and Dmax (Maximum degradation at the highest concentration tested in the assay).

[2] = molecular target: T2, IKZF1 (Homo sapiens, UniProt Q13422+Q96SW2); experiment: HiBiT protein tagging assay, in vitro IKZF1 degradation (HEK293); assay type: cell-based; details: HEK293, 18-24 hr incubation, normalized to DMSO control; for Dmax: read-out: IKZF1 Dmax (maximum degradation at the highest concentration tested); for DC50: read-out: IKZF1 EC50
T2 construct: expressed in transfected cells
T2 sequence (Q13422 whole entry): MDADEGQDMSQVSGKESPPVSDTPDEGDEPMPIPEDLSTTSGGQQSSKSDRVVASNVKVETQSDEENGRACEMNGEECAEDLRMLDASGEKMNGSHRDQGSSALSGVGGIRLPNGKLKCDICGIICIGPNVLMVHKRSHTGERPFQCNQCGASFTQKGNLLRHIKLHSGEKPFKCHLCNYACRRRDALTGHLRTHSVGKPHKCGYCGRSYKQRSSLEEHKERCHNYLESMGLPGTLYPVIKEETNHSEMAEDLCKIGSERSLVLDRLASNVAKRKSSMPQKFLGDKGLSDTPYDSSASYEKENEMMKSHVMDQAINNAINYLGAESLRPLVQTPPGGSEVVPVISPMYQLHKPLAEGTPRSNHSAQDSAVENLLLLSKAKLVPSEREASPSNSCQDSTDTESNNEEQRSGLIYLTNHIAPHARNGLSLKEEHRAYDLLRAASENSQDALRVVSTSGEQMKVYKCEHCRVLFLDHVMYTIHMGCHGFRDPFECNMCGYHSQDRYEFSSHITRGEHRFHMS
T2 sequence (Q96SW2 whole entry): as the sequence (Q96SW2 whole entry) above
T2 sequence (Q16531 whole entry partner): as the sequence (Q16531 whole entry partner) above
Description: as §1, §2, §3, §4, §5, §6

O=C1CCC(N2Cc3cc(CNC4Cc5ccccc5N(Cc5ccccc5)C4)ccc3C2=O)C(=O)N1 (stereo not drawn) [Example 25, 3-(5-(((1-benzyl-1,2,3,4-tetrahydroquinolin-3-yl)amino)methyl)-1-oxoisoindolin-2-yl)piperidine-2,6-dione]
Dmax [1]: 39%
DC50 [1]: 1800 nM
Dmax [2]: 38%
DC50 [2]: 84 nM

O=C1CCC(N2Cc3cc(CN[C@@H]4CCCC[C@H]4O)ccc3C2=O)C(=O)N1 (stereo partly drawn) [Example 40, 3-(5-((((1R,2R)-2-hydroxycyclohexyl)amino)methyl)-1-oxoisoindolin-2-yl)piperidine-2,6-dione]
Dmax [1]: 38%
DC50 [1]: 1200 nM
DC50 [2]: > 10000 nM

C[C@H]1CCCC[C@H]1NCc1ccc2c(c1)CN(C1CCC(=O)NC1=O)C2=O (stereo partly drawn) [Example 78]
Dmax [1]: 81%
DC50 [1]: 115 nM
Dmax [2]: 30%
DC50 [2]: 1700 nM

O=C1CCC(N2Cc3cc(CN[C@@H]4CCCC[C@H]4Cc4ccccc4)ccc3C2=O)C(=O)N1 (stereo partly drawn) [Example 67]
Dmax [1]: 75%
DC50 [1]: 160 nM
Dmax [2]: 73%
DC50 [2]: 46 nM

O=C1CCC(N2Cc3cc(CNC4CCCC(CO)C4)ccc3C2=O)C(=O)N1 (stereo not drawn) [Example 97, 3-(5-((((1,3-trans)-3-(hydroxymethyl)cyclohexyl)amino)methyl)-1-oxoisoindolin-2-yl)piperidine-2,6-dione]
Dmax [1]: 66%
DC50 [1]: 1800 nM
Dmax [2]: 64%
DC50 [2]: 5100 nM

O=C1CCC(N2Cc3cc(CN[C@H]4CCCc5ccccc54)ccc3C2=O)C(=O)N1 (stereo partly drawn) [Example 43, 3-(1-oxo-5-((((S)-1,2,3,4-tetrahydronaphthalen-1-yl)amino)methyl)isoindolin-2-yl)piperidine-2,6-dione]
Dmax [1]: 78%
DC50 [1]: 64 nM
Dmax [2]: 71%
DC50 [2]: 32 nM

O=C1CCC(N2Cc3cc(CN[C@H]4CCCC[C@@H]4O)ccc3C2=O)C(=O)N1 (stereo partly drawn) [Example 38, 3-(5-((((1S,2S)-2-hydroxycyclohexyl)amino)methyl)-1-oxoisoindolin-2-yl)piperidine-2,6-dione]
Dmax [1]: 21%
DC50 [1]: 3300 nM
DC50 [2]: > 10000 nM

O=C1CCC(N2Cc3cc(CN[C@@H]4CCCN(C(=O)c5ccccc5)C4)ccc3C2=O)C(=O)N1 (stereo partly drawn) [Example 24, 3-(5-((((R)-1-benzoylpiperidin-3-yl)amino)methyl)-1-oxoisoindolin-2-yl)piperidine-2,6-dione]
Dmax [1]: 62%
DC50 [1]: 2000 nM
Dmax [2]: 36%
DC50 [2]: 871 nM

N#C[C@H]1CC[C@@H](NCc2ccc3c(c2)CN(C2CCC(=O)NC2=O)C3=O)CC1 (stereo partly drawn) [Example 87]
Dmax [1]: 89%
DC50 [1]: 182 nM
Dmax [2]: 86%
DC50 [2]: 84 nM

O=C1CCC(N2Cc3cc(CNC4CCCC(C(F)(F)F)C4)ccc3C2=O)C(=O)N1 (stereo not drawn) [Example 128, 3-(1-oxo-5-((((1,3-trans)-3-(trifluoromethyl)cyclohexyl)amino)methyl)isoindolin-2-yl)piperidine-2,6-dione]
Dmax [1]: 64%
DC50 [1]: 181 nM
Dmax [2]: 42%
DC50 [2]: 104 nM

O=C1CCC(N2Cc3cc(CNC4CCCC(c5ccccc5)C4)ccc3C2=O)C(=O)N1 (stereo not drawn) [Example 50]
Dmax [1]: 51%
DC50 [1]: 166 nM
Dmax [2]: 30%
DC50 [2]: 47 nM

O=C1CCC(N2Cc3cc(CN[C@@H]4CCCN(c5ccccc5)C4)ccc3C2=O)C(=O)N1 (stereo partly drawn) [Example 30, 3-(1-oxo-5-((((R)-1-phenylpiperidin-3-yl)amino)methyl)isoindolin-2-yl)piperidine-2,6-dione]
Dmax [1]: 36%
DC50 [1]: 208 nM
Dmax [2]: 44%
DC50 [2]: 90 nM

O=C1CCC(N2Cc3cc(CNC4CCN(C(=O)OCc5ccccc5)CC4)ccc3C2=O)C(=O)N1 (stereo not drawn) [Example 3, benzyl 4-(((2-(2,6-dioxopiperidin-3-yl)-1-oxoisoindolin-5-yl)methyl)amino)piperidine-1-carboxylate]
Dmax [1]: 94%
DC50 [1]: 39 nM
Dmax [2]: 95%
DC50 [2]: 7 nM

O=C1CCC(N2Cc3cc(CNC4CCN(c5ccccn5)CC4)ccc3C2=O)C(=O)N1 (stereo not drawn) [Example 35, 3-(1-oxo-5-(((1-(pyridin-2-yl)piperidin-4-yl)amino)methyl)isoindolin-2-yl)piperidine-2,6-dione]
Dmax [1]: 88%
DC50 [1]: 111 nM
Dmax [2]: 85%
DC50 [2]: 28 nM

CO[C@H]1CC[C@H](NCc2ccc3c(c2)CN(C2CCC(=O)NC2=O)C3=O)CC1 (stereo partly drawn) [Example 76]
Dmax [1]: 90%
DC50 [1]: 144 nM
Dmax [2]: 51%
DC50 [2]: 184 nM

O=C1CCC(N2Cc3cc(CN[C@@H]4CCC[C@H]([C@H](O)c5ccccc5)C4)ccc3C2=O)C(=O)N1 (stereo partly drawn) [Example 136]
Dmax [1]: 95%
DC50 [1]: 204 nM
Dmax [2]: 93%
DC50 [2]: 99 nM

O=C1CCC(N2Cc3cc(CN[C@@H]4CCC[C@H](Oc5ccccc5)C4)ccc3C2=O)C(=O)N1 (stereo partly drawn) [Example 92]
Dmax [1]: 85%
DC50 [1]: 41 nM
Dmax [2]: 61%
DC50 [2]: 16 nM

O=C1CCC(N2Cc3cc(CN[C@@H]4CCCN(CCc5ccccc5)C4)ccc3C2=O)C(=O)N1 (stereo partly drawn) [Example 29, 3-(1-oxo-5-((((R)-1-phenethylpiperidin-3-yl)amino)methyl)isoindolin-2-yl)piperidine-2,6-dione]
Dmax [1]: 20%
DC50 [1]: 665 nM
Dmax [2]: 58%
DC50 [2]: 102 nM

O=C1CCC(N2Cc3cc(CN[C@H]4C[C@H]5CC[C@@H]4C5)ccc3C2=O)C(=O)N1 (stereo partly drawn) [Example 72]
Dmax [1]: 23%
DC50 [1]: 389 nM
DC50 [2]: > 10000 nM

CC1(C)C[C@]2(CC[C@@H](NCc3ccc4c(c3)CN(C3CCC(=O)NC3=O)C4=O)CC2)CO1 (stereo partly drawn) [Example 118]
Dmax [1]: 78%
DC50 [1]: 453 nM
Dmax [2]: 51%
DC50 [2]: 335 nM

O=C1CCC(N2Cc3cc(CNC4CCC(Cc5ccccc5)C4)ccc3C2=O)C(=O)N1 (stereo not drawn) [Example 69]
Dmax [1]: 68%
DC50 [1]: 113 nM
Dmax [2]: 57%
DC50 [2]: 66 nM

O=C1CCC(N2Cc3cc(CN[C@@H]4CCCC[C@H]4CO)ccc3C2=O)C(=O)N1 (stereo partly drawn) [Example 73, 3-(5-((((1R,2R)-2-(hydroxymethyl)cyclohexyl)amino)methyl)-1-oxoisoindolin-2-yl)piperidine-2,6-dione]
Dmax [1]: 31%
DC50 [1]: 1200 nM
Dmax [2]: 34%
DC50 [2]: 5800 nM

O=C1CCC(N2Cc3cc(CN[C@@H]4CCCN(C(c5ccccc5)C(F)(F)F)C4)ccc3C2=O)C(=O)N1 (stereo partly drawn) [Example 123]
Dmax [1]: 87%
DC50 [1]: 56 nM
Dmax [2]: 95%
DC50 [2]: 10 nM

C[C@H]1CCCC[C@@H]1NCc1ccc2c(c1)CN(C1CCC(=O)NC1=O)C2=O (stereo partly drawn) [Example 102]
Dmax [1]: 69%
DC50 [1]: 220 nM
Dmax [2]: 23%
DC50 [2]: 164 nM

O=C1CCC(N2Cc3cc(CN[C@@H]4CCCN(Cc5cccc(Cl)c5)C4)ccc3C2=O)C(=O)N1 (stereo partly drawn) [Example 99, 3-(5-((((R)-1-(3-chlorobenzyl)piperidin-3-yl)amino)methyl)-1-oxoisoindolin-2-yl)piperidine-2,6-dione]
Dmax [1]: 97%
DC50 [1]: 11 nM
Dmax [2]: 97%
DC50 [2]: 2 nM

O=C1CCC(N2Cc3cc(CN[C@H]4CCC[C@@H](Oc5ccccc5)C4)ccc3C2=O)C(=O)N1 (stereo partly drawn) [Example 110]
Dmax [1]: 72%
DC50 [1]: 118 nM
Dmax [2]: 55%
DC50 [2]: 105 nM

N#C[C@H]1CC[C@H](NCc2ccc3c(c2)CN(C2CCC(=O)NC2=O)C3=O)CC1 (stereo partly drawn) [Example 80]
Dmax [1]: 92%
DC50 [1]: 166 nM
Dmax [2]: 57%
DC50 [2]: 253 nM

O=C1CCC(N2Cc3cc(CNC4CCCC5(CCCC5)C4)ccc3C2=O)C(=O)N1 (stereo not drawn) [Example 133]
Dmax [1]: 72%
DC50 [1]: 273 nM
Dmax [2]: 51%
DC50 [2]: 185 nM

O=C1CCC(N2Cc3cc(CN[C@@H]4CCC[C@H](Nc5ccccc5)C4)ccc3C2=O)C(=O)N1 (stereo partly drawn) [Example 90]
Dmax [1]: 92%
DC50 [1]: 95 nM
Dmax [2]: 88%
DC50 [2]: 30 nM

O=C1CCC(N2Cc3cc(CN[C@H]4CCOc5ccccc54)ccc3C2=O)C(=O)N1 (stereo partly drawn) [Example 17, 3-(5-((((S)-chroman-4-yl)amino)methyl)-1-oxoisoindolin-2-yl)piperidine-2,6-dione]
Dmax [1]: 48%
DC50 [1]: 230 nM
Dmax [2]: 65%
DC50 [2]: 31 nM
